The text below walks through data of ChEMBL document CHEMBL1131118, “Inhibition of monoamine oxidase-B by condensed pyridazines and pyrimidines: effects of lipophilicity and structure-activity relationships” (J Med Chem, 1998).

Where only a bound is given, the exact number is not on record here.

A short description of data set [1]: Partition coefficient (logP). The settings on record: octanol/water.
A short description of data set [2]: Partition coefficient (logP) (cyclohexane). The settings on record: octanol/water.
Data set [3] concerns the target T1, Amine oxidase [flavin-containing] B (Rattus norvegicus, UniProt P19643).
T1 sequence (P19643 whole entry): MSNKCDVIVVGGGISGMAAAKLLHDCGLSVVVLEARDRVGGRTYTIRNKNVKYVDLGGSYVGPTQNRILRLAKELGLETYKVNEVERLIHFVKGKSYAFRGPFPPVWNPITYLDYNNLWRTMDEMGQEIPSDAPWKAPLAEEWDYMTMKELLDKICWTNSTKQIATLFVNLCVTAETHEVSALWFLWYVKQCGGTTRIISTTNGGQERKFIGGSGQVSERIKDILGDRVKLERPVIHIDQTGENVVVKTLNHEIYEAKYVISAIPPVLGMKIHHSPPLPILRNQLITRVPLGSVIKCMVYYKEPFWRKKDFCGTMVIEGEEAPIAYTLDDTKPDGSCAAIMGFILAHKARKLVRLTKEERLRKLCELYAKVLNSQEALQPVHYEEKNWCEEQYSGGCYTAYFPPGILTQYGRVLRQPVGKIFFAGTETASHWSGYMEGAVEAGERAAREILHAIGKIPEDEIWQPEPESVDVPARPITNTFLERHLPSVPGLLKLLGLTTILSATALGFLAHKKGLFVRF
Nature of the data set: Inhibitory activity against Monoamine oxidase B from rat brain mitochondria.

Data set [4] addresses T2, Amine oxidase [flavin-containing] A (Rattus norvegicus, UniProt P21396).
T2 sequence (P21396 whole entry): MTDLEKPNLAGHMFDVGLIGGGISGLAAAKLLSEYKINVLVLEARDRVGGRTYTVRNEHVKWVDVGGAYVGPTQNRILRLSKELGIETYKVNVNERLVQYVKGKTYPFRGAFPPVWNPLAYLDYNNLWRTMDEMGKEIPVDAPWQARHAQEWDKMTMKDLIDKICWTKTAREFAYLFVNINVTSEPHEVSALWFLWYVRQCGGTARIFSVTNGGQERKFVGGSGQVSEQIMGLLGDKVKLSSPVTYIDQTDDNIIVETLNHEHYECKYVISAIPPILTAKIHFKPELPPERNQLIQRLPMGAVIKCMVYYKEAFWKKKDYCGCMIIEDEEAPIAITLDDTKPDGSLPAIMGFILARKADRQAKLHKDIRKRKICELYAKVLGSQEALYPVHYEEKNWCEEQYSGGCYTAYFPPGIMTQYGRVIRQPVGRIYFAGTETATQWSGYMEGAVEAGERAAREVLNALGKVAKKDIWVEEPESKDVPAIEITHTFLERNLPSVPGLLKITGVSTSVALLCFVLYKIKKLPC
Put plainly: Inhibitory activity against Monoamine oxidase A from rat brain mitochondria.

For data set [5], the target named is T1, Amine oxidase [flavin-containing] B.
Description: Inhibitory activity against Monoamine oxidase B from rat brain mitochondria at 125 uM
Data set [6] has the same target. Nature of the data set: Inhibitory activity against Monoamine oxidase B from rat brain mitochondria at 10 uM.
Data set [7] shares this target. Nature of the data set: Inhibitory activity against Monoamine oxidase B.
In data set [8] the target is T2, Amine oxidase [flavin-containing] A.
Description: Inhibitory activity against Monoamine oxidase A from rat brain mitochondria at 25 uM
Data set [9] concerns the target T1, Amine oxidase [flavin-containing] B. Put plainly: Inhibitory activity against Monoamine oxidase B from rat brain mitochondria at 5 uM.
The target of data set [10] is T2, Amine oxidase [flavin-containing] A. Put plainly: Inhibitory activity against Monoamine oxidase A from rat brain mitochondria at 5 uM.
For data set [11], the target named is T1, Amine oxidase [flavin-containing] B. Nature of the data set: Inhibitory activity against Monoamine oxidase B from rat brain mitochondria at 50 uM.
Data set [12] addresses T2, Amine oxidase [flavin-containing] A. Nature of the data set: Inhibitory activity against Monoamine oxidase A from rat brain mitochondria at 50 uM.
The target is the same in data set [13]. Nature of the data set: Inhibitory activity against Monoamine oxidase A from rat brain mitochondria at 100 uM.
For data set [14], the target named is T1, Amine oxidase [flavin-containing] B. Put plainly: Inhibitory activity against Monoamine oxidase B from rat brain mitochondria at 100 uM.

Take `O=C1c2ccccc2-c2nnc(-c3ccc(F)cc3)cc21`: the logP (in general, a log measure of how a compound divides between an organic and an aqueous phase) is over 3 in data set [1] and 2.56 in data set [2].

On to `Cc1c(-c2ccccc2)nnc2c1C(=O)c1ccccc1-2`, for which the figures for the logP in data set [1] and in data set [2] were over 3 and 2.16, respectively.

Regarding `O=C1c2ccccc2-c2cnc(-c3ccccc3)nc21`, the IC50 (as a rule, the concentration needed to halve the response being measured) in data set [3] was 11.6 µM; in data set [4] it was 2.37 µM.

For `O=C1c2ccccc2-c2nncc(-c3ccccc3)c21`, the logP came to 2.8 in data set [1] and 1.4 in data set [2].

Consider `O=C1c2ccccc2-c2nnc(-c3ccc(O)cc3)cc21`, for which the results for the logP in data set [1] and in data set [2] were 2.88 and 0.13, respectively.

Consider `O=c1[nH]c(=O)c2cc(-c3ccccc3)nnc2[nH]1`, for which the logP in data set [1] is 1.56; in data set [2], -2.22. This compound also showed an IC50 in data set [4] of 16.4 µM. In addition, in data set [5], the inhibition (as a rule, the relative decrease from the control value, in per cent) at 125 µM was 32%.

With `O=C1c2ccccc2-c2nnccc21`, the logP in data set [1] is 1.22; in data set [2] it was -0.29.

In the case of `Cc1cc2c(nn1)-c1ccccc1C2=O`, the logP in data set [1] is 1.58; in [2], -0.04.

On to `COc1ccccc1-c1cc2c(nn1)-c1ccccc1C2=O`, for which the logP in data set [1] was over 3; in data set [2], 2.26.

Turning to `O=C1c2ccccc2-c2nnc(-c3ccc([N+](=O)[O-])cc3)cc21`, the log partition coefficient (logP) was over 3 in [1] and 2.34 in data set [2].

In the case of `O=C1c2ccccc2-c2nc(-c3ccccc3)ncc21`, the figures for the lipophilicity (logP) in data set [1] and in data set [2] were over 3 and 3.15, respectively. Besides, the 50% inhibitory concentration (IC50) in [3] was 11.5 µM; in [4] it was 8.39 µM. This compound also displayed an inhibition at 10 µM in data set [6] of 28%.

For `O=C1CCCc2nnc(-c3ccccc3)cc21`, the logP was found to be 2.05 in data set [1] and 0.6 in data set [2]. In addition, the figures for the IC50 in data set [3], in [7] and in [4] were 74.8 µM, 74.1 µM and 59.1 µM, respectively.

With `O=C1c2ccccc2-c2nnc(-c3ccccc3)cc21`, the lipophilicity (logP) in [1] was over 3; in [2], 2.34. This compound gave an inhibition at 25 µM in data set [8] of 0%.

As to `c1ccc(-c2cc3[nH]c4ccccc4c3nn2)cc1`, the inhibition at 5 µM in data set [9] and in data set [10] was 0% each time.

Consider `c1ccc(-c2cc3c(nn2)CCC3)cc1`, for which the values for the inhibition at 50 µM in [11] and in data set [12] were 12% and 44%, respectively.

Take `O=C(c1ccccc1)c1ccnnc1`: the log partition coefficient (logP) in data set [1] was 1.09; in data set [2], -0.45. For the same compound, the inhibition at 100 µM is 18% in [13] and 29% in data set [14].

With `O=C1c2ccccc2-c2nnc(C(F)(F)F)cc21`, the figures for the logP in data set [1] and in [2] were 2.21 and 0.7, respectively.

On to `O=C1c2ccccc2-c2nnc(-c3ccccc3O)cc21`, for which the logP came out at 3.15 in [1] and 2.55 in data set [2].

As to `COc1cccc(-c2cc3c(nn2)-c2ccccc2C3=O)c1`, the logP in data set [1] was over 3; in data set [2], 2.83.

As for `O=C1c2ccccc2-c2nnc(-c3cccc([N+](=O)[O-])c3)cc21`, the logP in data set [1] was over 3; in data set [2], 1.66. This compound showed a 50% inhibitory concentration (IC50) in data set [3] of 0.631 µM.

As to `COc1ccc(-c2cc3c(nn2)-c2ccccc2C3=O)cc1`, the log partition coefficient (logP) was over 3 in data set [1] and 2.51 in data set [2].

For `O=C1c2ccccc2-c2nnc(-c3ccccc3F)cc21`, the logP is over 3 in data set [1] and 2.07 in data set [2].

Take `O=C1c2ccccc2-c2nnc(-c3ccccc3[N+](=O)[O-])cc21`: the lipophilicity (logP) in data set [1] worked out at 2.64; in [2] it was 1.05.

Turning to `O=c1[nH]c(=O)c2cc(-c3ccc(C(F)(F)F)cc3)nnc2[nH]1`, the inhibition at 5 µM was 12.5% in data set [9] and 15% in data set [10].
